Source: ChEMBL document CHEMBL1909046, “DrugMatrix in vitro pharmacology data”

Tests used:
[1] = molecular target: T1, D(4) dopamine receptor (Homo sapiens, UniProt P21917); assay: DRUGMATRIX: Dopamine D4.2 radioligand binding (ligand: [3H] Spiperone); format: cell membranes, CHO-K1, Membrane; conditions: cho-k1; Not Active = under 50% inhibition at 10 µM
T1 sequence (P21917 whole entry): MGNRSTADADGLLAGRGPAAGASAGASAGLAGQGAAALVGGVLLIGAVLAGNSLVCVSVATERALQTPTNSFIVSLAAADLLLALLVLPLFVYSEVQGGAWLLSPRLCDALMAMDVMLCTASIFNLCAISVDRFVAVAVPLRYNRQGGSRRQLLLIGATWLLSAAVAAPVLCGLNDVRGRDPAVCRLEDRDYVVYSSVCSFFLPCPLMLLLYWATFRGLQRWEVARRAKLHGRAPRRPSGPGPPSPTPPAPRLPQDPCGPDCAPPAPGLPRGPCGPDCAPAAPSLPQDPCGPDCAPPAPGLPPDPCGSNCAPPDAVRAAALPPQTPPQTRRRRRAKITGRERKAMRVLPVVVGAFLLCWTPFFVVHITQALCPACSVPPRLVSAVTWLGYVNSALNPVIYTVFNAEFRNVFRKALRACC

[2] = DRUGMATRIX: ATPase, Na+/K+ enzyme inhibition (substrate: ATP); format: tissue-based, Sus scrofa, Heart; conditions: Not Active = under 50% inhibition at 10 µM
[3] = molecular target: T2, Substance-K receptor (Homo sapiens, UniProt P21452); format: cell membranes, CHO, Membrane; note: in other assays of this panel Not Active means under 50% inhibition at 10 µM
T2 sequence (P21452 whole entry): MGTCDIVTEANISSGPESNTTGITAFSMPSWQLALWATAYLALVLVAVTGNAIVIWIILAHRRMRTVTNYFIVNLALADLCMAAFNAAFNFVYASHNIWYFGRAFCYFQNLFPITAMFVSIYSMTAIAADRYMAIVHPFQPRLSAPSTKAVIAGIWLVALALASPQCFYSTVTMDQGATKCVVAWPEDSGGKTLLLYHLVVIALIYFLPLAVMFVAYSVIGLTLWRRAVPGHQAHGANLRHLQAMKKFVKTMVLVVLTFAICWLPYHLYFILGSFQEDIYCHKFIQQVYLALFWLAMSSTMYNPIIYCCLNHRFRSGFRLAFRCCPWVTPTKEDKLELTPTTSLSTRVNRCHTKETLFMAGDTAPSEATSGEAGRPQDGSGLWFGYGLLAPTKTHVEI

[4] = molecular target: Cytochrome P450 2C19 (Homo sapiens, UniProt P33261); conditions: bti-tn-5b1-4; note: in other assays of this panel Not Active means under 50% inhibition at 10 µM
Chain of Cytochrome P450 2C19 (P33261 whole entry): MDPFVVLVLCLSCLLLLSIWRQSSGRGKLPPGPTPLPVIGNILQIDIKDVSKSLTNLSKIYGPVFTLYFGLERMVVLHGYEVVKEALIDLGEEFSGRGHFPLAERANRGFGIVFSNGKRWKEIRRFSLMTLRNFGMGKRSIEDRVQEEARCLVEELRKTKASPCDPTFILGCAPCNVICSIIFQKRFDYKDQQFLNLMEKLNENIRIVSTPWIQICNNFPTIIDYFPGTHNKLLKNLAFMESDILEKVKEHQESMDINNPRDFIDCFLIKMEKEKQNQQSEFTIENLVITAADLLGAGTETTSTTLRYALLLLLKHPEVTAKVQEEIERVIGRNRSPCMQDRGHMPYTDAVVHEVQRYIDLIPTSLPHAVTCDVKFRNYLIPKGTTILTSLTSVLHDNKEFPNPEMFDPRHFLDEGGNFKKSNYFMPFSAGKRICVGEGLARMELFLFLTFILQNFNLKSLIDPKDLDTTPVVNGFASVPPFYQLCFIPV

[5] = DRUGMATRIX: Phosphodiesterase PDE3 enzyme inhibition (substrate: [3H]cAMP + cAMP); format: tissue-based, Homo sapiens; conditions: platelet, Not Active = under 50% inhibition at 10 µM
[6] = molecular target: T3, 3-hydroxy-3-methylglutaryl-coenzyme A reductase (Homo sapiens, UniProt P04035); set-up: species or system Escherichia coli;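 note: enzyme inhibition assay of HMG-CoA reductase using radiolabeled [14C]HMG-CoA as substrate; in other assays of this panel Not Active means under 50% inhibition at 10 µM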
T3 sequence (P04035 whole entry): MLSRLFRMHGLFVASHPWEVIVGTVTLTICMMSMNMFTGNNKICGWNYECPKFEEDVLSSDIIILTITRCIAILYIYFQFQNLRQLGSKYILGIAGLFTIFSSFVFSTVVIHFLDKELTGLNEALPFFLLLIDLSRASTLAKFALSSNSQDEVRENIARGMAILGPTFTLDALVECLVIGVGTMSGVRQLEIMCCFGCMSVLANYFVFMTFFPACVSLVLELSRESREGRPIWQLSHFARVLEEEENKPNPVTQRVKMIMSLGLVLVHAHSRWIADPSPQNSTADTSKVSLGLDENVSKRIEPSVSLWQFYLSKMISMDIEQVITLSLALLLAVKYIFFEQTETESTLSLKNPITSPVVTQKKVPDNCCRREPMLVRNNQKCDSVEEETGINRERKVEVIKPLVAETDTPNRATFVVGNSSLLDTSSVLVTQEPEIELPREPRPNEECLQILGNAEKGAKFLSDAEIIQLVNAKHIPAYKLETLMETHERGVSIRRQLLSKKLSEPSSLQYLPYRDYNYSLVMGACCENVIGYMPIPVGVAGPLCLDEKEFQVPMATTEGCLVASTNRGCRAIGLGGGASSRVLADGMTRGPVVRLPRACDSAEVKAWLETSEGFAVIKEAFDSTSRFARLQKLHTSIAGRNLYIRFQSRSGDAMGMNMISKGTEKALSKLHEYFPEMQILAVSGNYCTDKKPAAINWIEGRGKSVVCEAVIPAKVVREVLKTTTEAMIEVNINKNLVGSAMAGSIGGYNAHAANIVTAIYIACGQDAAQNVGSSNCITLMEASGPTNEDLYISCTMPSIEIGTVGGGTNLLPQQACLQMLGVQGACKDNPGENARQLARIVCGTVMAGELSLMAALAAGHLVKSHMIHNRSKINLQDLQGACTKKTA

[7] = molecular target: Mu-type opioid receptor (Homo sapiens, UniProt P35372); assay: DRUGMATRIX: Opiate mu (OP3, MOP) radioligand binding (ligand: [3H] Diprenorphine); format: cell membranes, CHO-K1, Membrane; conditions: Not Active = under 50% inhibition at 10 µM
Chain of Mu-type opioid receptor (P35372 whole entry): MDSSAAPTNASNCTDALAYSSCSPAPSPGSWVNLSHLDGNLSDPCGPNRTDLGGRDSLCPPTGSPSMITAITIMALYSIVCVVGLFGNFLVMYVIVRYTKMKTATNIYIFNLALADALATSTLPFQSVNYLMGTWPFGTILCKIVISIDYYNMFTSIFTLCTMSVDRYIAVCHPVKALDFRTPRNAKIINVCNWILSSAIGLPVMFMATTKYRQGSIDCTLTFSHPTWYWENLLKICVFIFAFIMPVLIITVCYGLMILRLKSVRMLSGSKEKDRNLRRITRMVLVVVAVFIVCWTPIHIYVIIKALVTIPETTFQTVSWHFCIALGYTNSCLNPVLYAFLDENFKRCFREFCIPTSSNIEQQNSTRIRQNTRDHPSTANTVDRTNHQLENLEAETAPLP

[8] = molecular target: T4, Type-2 angiotensin II receptor (Homo sapiens, UniProt P50052); format: cell-based; conditions: cho-k1; note: in other assays of this panel Not Active means under 50% inhibition at 10 µM
T4 sequence (P50052 whole entry): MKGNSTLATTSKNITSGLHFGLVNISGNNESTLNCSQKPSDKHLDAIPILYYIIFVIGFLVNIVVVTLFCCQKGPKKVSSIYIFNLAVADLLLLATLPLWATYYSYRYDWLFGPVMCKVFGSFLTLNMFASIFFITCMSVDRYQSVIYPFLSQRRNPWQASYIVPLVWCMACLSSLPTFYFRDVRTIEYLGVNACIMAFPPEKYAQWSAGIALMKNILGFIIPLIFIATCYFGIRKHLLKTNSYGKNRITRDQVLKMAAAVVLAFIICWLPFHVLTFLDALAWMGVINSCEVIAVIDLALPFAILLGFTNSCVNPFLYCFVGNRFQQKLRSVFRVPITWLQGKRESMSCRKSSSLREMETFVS

SMILES	IC50 [1]	IC50 ([2]; read-out: IC50)	IC50 ([3]; read-out: IC50)	Ki ([3]; read-out: Ki)	IC50 [4]	Ki [4]	IC50 ([5]; read-out: IC50)	IC50 [6]	Ki [7]	IC50 ([7]; read-out: IC50)	IC50 [8]	IC50 [2]	Ki [2]	IC50 ([3]; cho)	IC50 [5]	Ki [5]	IC50 ([7]; cho-k1)
Oc1c(Cl)cc(Cl)cc1Sc1cc(Cl)cc(Cl)c1O [BITHIONOL]	Not Active	5.02 µM	4.66 µM	1.55 µM	Not Active	Not Active	2.72 µM	Not Active	2.24 µM	5.51 µM	Not Active						
CC(/C=C1\SC(=S)N(CC(=O)O)C1=O)=C\c1ccccc1	Not Active				Not Active	Not Active		Not Active			Not Active	Not Active	Not Active	Not Active	Not Active	Not Active	Not Active
CN1CCC[C@H]1c1cccnc1 [NICOTINE]	Not Active				Not Active	Not Active		Not Active			Not Active	Not Active	Not Active	Not Active	Not Active	Not Active	Not Active
NCC[C@H](O)C(=O)N[C@@H]1C[C@H](N)[C@@H](O[C@H]2O[C@H](CN)[C@@H](O)[C@H](O)[C@H]2O)[C@H](O)[C@H]1O[C@H]1O[C@H](CO)[C@@H](O)[C@H](N)[C@H]1O [AMIKACIN]	Not Active				Not Active	Not Active		Not Active			Not Active	Not Active	Not Active	Not Active	Not Active	Not Active	Not Active
C=C1C(=O)O[C@@H]2C3O[C@]3(C)CC/C=C(\C)CC[C@@H]12 (stereo not given in full)	Not Active				Not Active	Not Active		Not Active			Not Active	Not Active	Not Active	Not Active	Not Active	Not Active	Not Active
NCC1(CC(=O)O)CCCCC1 [GABAPENTIN]	Not Active				Not Active	Not Active		Not Active			Not Active	Not Active	Not Active	Not Active	Not Active	Not Active	Not Active
Brc1ccccc1 [BROMOBENZENE]	Not Active				Not Active	Not Active		Not Active			Not Active	Not Active	Not Active	Not Active	Not Active	Not Active	Not Active
CC(=O)CCCCn1c(=O)c2c(ncn2C)n(C)c1=O [PENTOXIFYLLINE]	Not Active				Not Active	Not Active		Not Active			Not Active	Not Active	Not Active	Not Active	Not Active	Not Active	Not Active
Cc1c(-c2ccccc2)oc2c(C(=O)OCCN3CCCCC3)cccc2c1=O [FLAVOXATE]	Not Active				Not Active	Not Active		Not Active			Not Active	Not Active	Not Active	Not Active	Not Active	Not Active	Not Active
C/C=C1\[C@H]2C=C(C)C[C@]1(N)c1ccc(=O)[nH]c1C2 [HUPERZINE A]	Not Active				Not Active	Not Active		Not Active			Not Active	Not Active	Not Active	Not Active	Not Active	Not Active	Not Active
